Experimental data as given in publication PMC11579512, “Deoxybouvardin-glucoside induces apoptosis in non-small cell lung cancer cells by targeting EGFR/MET and AKT signaling pathway” (EXCLI Journal, 2024).

Assays:
Assay type in all cases: cell-based, human
PARP = experiment: Immunoblot PARP with NAC pretreatment, HCC827 and HCC827GR cells; conditions: for PARP protein Ratio: control = 1.00
Method: (§1) HaCaT cells were grown in DMEM, whereas HCC827 and HCC827GR cells were grown in RPMI 1640. All culture media were supplemented with FBS (10 %) and P/S (1 %), and the cells were grown at 37 °C in 5 % CO2.
(§2) Cells were lysed in RIPA buffer, and protein concentration was determined using a Bio-Rad DC Protein Assay kit (Bio-Rad, Hercules, CA, USA). Protein samples from the cell lysates were resolved by sodium dodecyl sulfate-polyacrylamide gel electrophoresis and then transferred onto polyvinylidene fluoride membranes. The membranes were blocked with 3 % or 5 % skim milk and then incubated at 4 °C overnight with the indicated primary antibodies, followed by the corresponding horseradish peroxidase-conjugated secondary antibodies at RT for 2 h. Protein bands were visualized using western blotting luminol reagent solution and ImageQuant LAS 500 (GE Healthcare, Uppsala, Sweden). The density of the bands was quantified using ImageJ software (NIH, Bethesda, MD, USA).

HCC827GR cells [1] = experiment: Soft agar anchorage-independent growth, HCC827GR; conditions: 2 weeks
Method: The anchorage-independent cell growth assay was performed in 6-well plates with dual agar layers containing 0.6 % agar (lower layer) and 0.3 % agar (upper layer) supplemented with BME, 2 mM L-glutamine, 5 μg/ml gentamicin, and 10 % FBS. After 2 weeks of incubation, the number of colonies was assessed using a microscope (Leica, Wetzlar, Germany), and the mean colony area was analyzed using i-Solution ^TM software (Vancouver, BC, Canada).

HCC827GR cells [2] = experiment: Intracellular ROS (Muse Oxidative Stress Kit), HCC827GR; conditions: 48 h, control 16.69 %
Method: as §1
The levels of intracellular ROS were measured using a Muse™ Oxidative Stress Kit (MCH100111, Merck Millipore) in accordance with the manufacturer's instructions. The cells were incubated with a Muse™ Oxidative Stress Reagent working solution in the dark at 37 °C for 30 min. Intracellular ROS generation was measured using a Muse™ Cell Analyzer.

CDK6 = experiment: Immunoblot CDK6 in HCC827 and HCC827GR cells; conditions: for CDK6 protein ratio: relative to DBG 0 nM = 1.00
Method: as §1, §2

HCC827 cells = experiment: MTT viability after NAC pretreatment, HCC827; conditions: for cell viability (relative to untreated = 100.00): HCC827
Method: (§3) All culture media were supplemented with FBS (10 %) and P/S (1 %), and the cells were grown at 37 °C in 5 % CO2.
(§4) The cells were treated with MTT and incubated for 2 h. The supernatants were removed, and the remaining formazan crystals were dissolved in DMSO before absorbance measurement at 570 nm using a Multiscan GO spectrophotometer (Thermo Fisher Scientific, Vantaa, Finland).

HCC827GR cells [3] = experiment: MTT viability after NAC pretreatment, HCC827GR; conditions: for cell viability (relative to untreated = 100.00): HCC827GR
Method: as §3, §4

p-MET = experiment: Immunoblot p-MET with NAC pretreatment, HCC827 and HCC827GR cells; conditions: for p-MET protein Ratio: control = 1.00
Method: as §1, §2

p-AKT (S473) = experiment: Western blot p-AKT (S473) in HCC827 and HCC827GR cells; conditions: DBG 3, 6, 12 nM, 48 h
Method: as §1, §2

p-AKT = experiment: Immunoblot p-AKT with NAC pretreatment, HCC827 and HCC827GR cells; conditions: for p-AKT protein Ratio: control = 1.00
Method: as §1, §2

[4] = NAC 4 mM + DBG 12 nM, mean of 3
[5] = NAC 4 mM + DBG 12 nM, replicate 1
[6] = NAC 4 mM + DBG 12 nM, replicate 2
[7] = NAC 4 mM + DBG 12 nM, replicate 3
[8] = NAC 4 mM pretreatment, DBG 48 h

SMILES: COc1ccc(C[C@H]2C(=O)N[C@@H](C)C(=O)N(C)[C@H]3Cc4ccc(cc4)Oc4cc(ccc4O[C@@H]4O[C@H](CO)[C@@H](O)[C@H](O)[C@H]4O)C[C@@H](C(=O)N[C@H](C)C(=O)N[C@@H](C)C(=O)N2C)N(C)C3=O)cc1 [DBG, deoxybouvardin glucoside]
- PARP protein/actin (PARP; HCC827, DBG 12 nM, control 0.96): 0.09
- PARP protein Ratio (PARP; HCC827, DBG 12 nM): 0.09
- PARP protein/actin (PARP; HCC827, NAC 4 mM + DBG 12 nM, control 0.96): 1.09
- PARP protein Ratio (PARP; HCC827, NAC 4 mM + DBG 12 nM): 1.14
- PARP protein/actin (PARP; HCC827GR, DBG 12 nM, control 0.99): 0.21
- PARP protein Ratio (PARP; HCC827GR, DBG 12 nM): 0.22
- PARP protein/actin (PARP; HCC827GR, NAC 4 mM + DBG 12 nM, control 0.99): 0.81
- PARP protein Ratio (PARP; HCC827GR, NAC 4 mM + DBG 12 nM): 0.82
- colony number, Control % (HCC827GR cells [1]; DBG 3 nM): 40.00%
- colony size, Control % (HCC827GR cells [1]; DBG 3 nM): 77.33%
- colony number, Control % (HCC827GR cells [1]; DBG 6 nM): 13.10%
- colony size, Control % (HCC827GR cells [1]; DBG 6 nM): 72.67%
- colony number, Control % (HCC827GR cells [1]; DBG 12 nM): 0.00%
- colony size, Control % (HCC827GR cells [1]; DBG 12 nM): 0.00%
- ROS level (HCC827GR cells [2]; DBG 3 nM): 36.89%
- ROS level (HCC827GR cells [2]; DBG 6 nM): 39.97%
- ROS level (HCC827GR cells [2]; DBG 12 nM): 47.92%
- level of CDKs (CDK6) (CDK6; DBG 3, 6, 12 nM, 48 h): significantly decreased
- CDK6 protein/actin (CDK6; HCC827, DBG 3 nM, DBG 0 nM 0.53): 0.32
- CDK6 protein ratio (CDK6; HCC827, DBG 3 nM): 0.60
- CDK6 protein/actin (CDK6; HCC827, DBG 6 nM, DBG 0 nM 0.53): 0.19
- CDK6 protein ratio (CDK6; HCC827, DBG 6 nM): 0.36
- CDK6 protein/actin (CDK6; HCC827, DBG 12 nM, DBG 0 nM 0.53): 0.07
- CDK6 protein ratio (CDK6; HCC827, DBG 12 nM): 0.14
- CDK6 protein/actin (CDK6; HCC827GR, DBG 3 nM, DBG 0 nM 0.70): 0.55
- CDK6 protein ratio (CDK6; HCC827GR, DBG 3 nM): 0.79
- CDK6 protein/actin (CDK6; HCC827GR, DBG 6 nM, DBG 0 nM 0.70): 0.47
- CDK6 protein ratio (CDK6; HCC827GR, DBG 6 nM): 0.67
- CDK6 protein/actin (CDK6; HCC827GR, DBG 12 nM, DBG 0 nM 0.70): 0.30
- CDK6 protein ratio (CDK6; HCC827GR, DBG 12 nM): 0.43
- cell viability (relative to untreated = 100.00) (HCC827 cells; DBG 12 nM, mean of 3): 45.66
- cell viability (relative to untreated = 100.00) (HCC827 cells; DBG 12 nM, replicate 1): 44.99
- cell viability (relative to untreated = 100.00) (HCC827 cells; DBG 12 nM, replicate 2): 46.50
- cell viability (relative to untreated = 100.00) (HCC827 cells; DBG 12 nM, replicate 3): 45.48
- cell viability (relative to untreated = 100.00) (HCC827 cells; [4]): 94.90
- cell viability (relative to untreated = 100.00) (HCC827 cells; [5]): 97.37
- cell viability (relative to untreated = 100.00) (HCC827 cells; [6]): 92.86
- cell viability (relative to untreated = 100.00) (HCC827 cells; [7]): 94.46
- anticancer activity of DBG after NAC pretreatment (HCC827 cells; NAC 4 mM, 3 h, DBG 48 h): decreased
- cytotoxicity after NAC pretreatment (HCC827 cells; NAC 4 mM, DBG 12 nM): a little, if any, cytotoxicity only at 12 nM
- cell viability (relative to untreated = 100.00) (HCC827GR cells [3]; DBG 12 nM, mean of 3): 38.91
- cell viability (relative to untreated = 100.00) (HCC827GR cells [3]; DBG 12 nM, replicate 1): 39.88
- cell viability (relative to untreated = 100.00) (HCC827GR cells [3]; DBG 12 nM, replicate 2): 38.76
- cell viability (relative to untreated = 100.00) (HCC827GR cells [3]; DBG 12 nM, replicate 3): 38.08
- cell viability (relative to untreated = 100.00) (HCC827GR cells [3]; [4]): 99.25
- cell viability (relative to untreated = 100.00) (HCC827GR cells [3]; [5]): 100.78
- cell viability (relative to untreated = 100.00) (HCC827GR cells [3]; [6]): 98.32
- cell viability (relative to untreated = 100.00) (HCC827GR cells [3]; [7]): 98.66
- anticancer activity of DBG after NAC pretreatment (HCC827GR cells [3]; NAC 4 mM, 3 h, DBG 48 h): decreased
- cytotoxicity after NAC pretreatment (HCC827GR cells [3]; NAC 4 mM, DBG 12 nM): a little, if any, cytotoxicity only at 12 nM
- p-MET protein/actin (p-MET; HCC827, DBG 12 nM, control 1.17): 0.27
- p-MET protein Ratio (p-MET; HCC827, DBG 12 nM): 0.23
- p-MET protein/actin (p-MET; HCC827, NAC 4 mM + DBG 12 nM, control 1.17): 0.40
- p-MET protein Ratio (p-MET; HCC827, NAC 4 mM + DBG 12 nM): 0.34
- p-MET protein/actin (p-MET; HCC827GR, DBG 12 nM, control 1.14): 0.44
- p-MET protein Ratio (p-MET; HCC827GR, DBG 12 nM): 0.39
- p-MET protein/actin (p-MET; HCC827GR, NAC 4 mM + DBG 12 nM, control 1.14): 0.21
- p-MET protein Ratio (p-MET; HCC827GR, NAC 4 mM + DBG 12 nM): 0.18
- DBG-decreased phosphorylation of MET with NAC (p-MET; [8]): did not change
- phosphorylation level of AKT (p-AKT (S473)): decreased
- p-AKT protein/actin (p-AKT; HCC827, DBG 12 nM, control 1.00): 0.39
- p-AKT protein Ratio (p-AKT; HCC827, DBG 12 nM): 0.39
- p-AKT protein/actin (p-AKT; HCC827, NAC 4 mM + DBG 12 nM, control 1.00): 0.42
- p-AKT protein Ratio (p-AKT; HCC827, NAC 4 mM + DBG 12 nM): 0.42
- p-AKT protein/actin (p-AKT; HCC827GR, DBG 12 nM, control 1.04): 0.30
- p-AKT protein Ratio (p-AKT; HCC827GR, DBG 12 nM): 0.29
- p-AKT protein/actin (p-AKT; HCC827GR, NAC 4 mM + DBG 12 nM, control 1.04): 0.17
- p-AKT protein Ratio (p-AKT; HCC827GR, NAC 4 mM + DBG 12 nM): 0.16
- DBG-decreased phosphorylation of AKT with NAC (p-AKT; [8]): did not change
